Experimental data as given in the supplement of paper PMC11061612.

Tests used:
[1] = tested on: Jurkat (T-Lymphoblastic Leukemia); assay: combination Emax (second highest fraction inhibited in the dose matrix, 72 h); higher = more inhibition; extreme values may be limits of the assay
How it was run: (§1)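 Bliss excess equals the observed combination effect minus the expected value EA + EB − EA·EB, where EA and EB are the effects of each agent alone. Combination Emax is the second-highest inhibition within the matrix. Inhibition was scaled from CellTiter-Glo 2.0 luminescence, with 0 set by vehicle wells and 1 by blank wells, after 72 hours of two-drug dosing of cells plated in 1536-well plates.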

[2] = tested on: CAL-27 (Oral Cavity Carcinoma); assay: as above
How it was run: as §1

COLO-792 (Melanoma) = assay: as above
How it was run: as §1

[3] = tested on: KYSE-140 (Esophageal Squamous Cell Carcinoma); assay: as above
How it was run: as §1

[4] = tested on: G-402 (Other Solid Carcinomas); assay: as above
How it was run: as §1

[5] = tested on: DMS-53 (Small Cell Lung Carcinoma); assay: as above
How it was run: as §1

[6] = tested on: A253 (Head and Neck Carcinoma); assay: as above
How it was run: as §1

NB13 (Neuroblastoma) = assay: as above
How it was run: as §1

A101D (Melanoma) = assay: as above
How it was run: as §1

[7] = tested on: CA46 (Burkitt's Lymphoma); assay: as above
How it was run: as §1

[8] = tested on: JVM-2 (B-Cell Non-Hodgkin's Lymphoma); assay: as above
How it was run: as §1

[9] = tested on: UACC-812 (Breast Carcinoma); assay: as above
How it was run: as §1

[10] = tested on: ESO26 (Esophageal Adenocarcinoma); assay: as above
How it was run: as §1

[11] = tested on: NCI-H1703 (Squamous Cell Lung Carcinoma); assay: Bliss excess, mean over the matrix (fraction); higher = more synergy
How it was run: as §1

[12] = tested on: NCI-H2087 (Lung Adenocarcinoma); assay: as above
How it was run: as §1

[13] = tested on: A2780 (Ovarian Carcinoma); assay: as above
How it was run: as §1

IM-9 (Non-Cancerous) = assay: as above
How it was run: as §1

[14] = tested on: CGTH-W-1 (Thyroid Gland Carcinoma); assay: as above
How it was run: as §1

769-P (Kidney Carcinoma) = assay: as above
How it was run: as §1

EW-7 (Ewing's Sarcoma) = assay: as above
How it was run: as §1

CN(CCO)CC[C@H](CSc1ccccc1)Nc1ccc(S(=O)(=O)NC(=O)c2ccc(N3CCC([C@@H](O)c4ccccc4-c4ccc(Cl)cc4)CC3)cc2)cc1S(=O)(=O)C(F)(F)F [AZD4320] + Cn1cnc2c(F)c(Nc3ccc(Br)cc3Cl)c(C(=O)NOCCO)cc21 [Selumetinib] (first compound max 1 µM, 7x7, partner max 3 µM)
combination Emax [1]: 0.798
combination Emax [2]: 0.661
combination Emax (COLO-792 (Melanoma)): 0.913
combination Emax [3]: 0.289
combination Emax [4]: 0.553
combination Emax [5]: 1
combination Emax [6]: 0.523
combination Emax (NB13 (Neuroblastoma)): 1
combination Emax (A101D (Melanoma)): 0.781
combination Emax [7]: 0.19
combination Emax [8]: 0.889
combination Emax [9]: 0.238
combination Emax [10]: 0.3
Bliss excess [11]: 0.0103
Bliss excess [12]: 0.0142
Bliss excess [13]: 0.0111
Bliss excess (IM-9 (Non-Cancerous)): 0.051
Bliss excess [14]: 0.0043
Bliss excess (769-P (Kidney Carcinoma)): 0.0392
Bliss excess (EW-7 (Ewing's Sarcoma)): 0.0295

Cc1cc2ncnn2cc1Nc1ncc2c(n1)n(C1CCOCC1)c(=O)n2C [AZD7648] + C[C@@H]1COCCN1C2=NC(=NC(=C2)C3(CC3)[S@](=N)(=O)C)C4=C5C=CNC5=NC=C4 [AZD6738] (first compound max 10 µM, 7x7, partner max 10 µM)
combination Emax [1]: 0.814
combination Emax [2]: 0.431
combination Emax (COLO-792 (Melanoma)): 0.386
combination Emax [3]: 0.927
combination Emax [4]: 0.602
combination Emax [5]: 0.153
combination Emax [6]: 0.77
combination Emax (NB13 (Neuroblastoma)): 0.919
combination Emax (A101D (Melanoma)): 0.778
combination Emax [7]: 0.492
combination Emax [8]: 0.842
combination Emax [9]: 0.267
combination Emax [10]: 0.234
Bliss excess [11]: 0.0089
Bliss excess [12]: 0.0177
Bliss excess [13]: 0.0061
Bliss excess (IM-9 (Non-Cancerous)): -0.0417
Bliss excess [14]: 0.0191
Bliss excess (769-P (Kidney Carcinoma)): 0.0264
Bliss excess (EW-7 (Ewing's Sarcoma)): -0.0058

CN(CCO)CC[C@H](CSc1ccccc1)Nc1ccc(S(=O)(=O)NC(=O)c2ccc(N3CCC([C@@H](O)c4ccccc4-c4ccc(Cl)cc4)CC3)cc2)cc1S(=O)(=O)C(F)(F)F [AZD4320] + C[C@@H]1COCCN1C2=NC(=NC(=C2)C3(CC3)[S@](=N)(=O)C)C4=C5C=CNC5=NC=C4 [AZD6738] (first compound max 1 µM, 7x7, partner max 10 µM)
combination Emax [1]: 0.955
combination Emax [2]: 0.498
combination Emax (COLO-792 (Melanoma)): 0.692
combination Emax [3]: 0.878
combination Emax [4]: 0.84
combination Emax [5]: 0.994
combination Emax [6]: 0.892
combination Emax (NB13 (Neuroblastoma)): 1
combination Emax (A101D (Melanoma)): 0.891
combination Emax [7]: 0.362
combination Emax [8]: 0.908
combination Emax [9]: 0.275
combination Emax [10]: 0.628
Bliss excess [11]: 0.0053
Bliss excess [12]: 0.0149
Bliss excess [13]: -0.0402
Bliss excess (IM-9 (Non-Cancerous)): 0.0007
Bliss excess [14]: -0.0342
Bliss excess (769-P (Kidney Carcinoma)): -0.0167
Bliss excess (EW-7 (Ewing's Sarcoma)): 0.0835

COc1cc2ncnc(Nc3ccc(F)c(Cl)c3)c2cc1OCCCN1CCOCC1 [Gefitinib] + CC(C)n1c(=O)n(C)c2cnc3cc(F)c(-c4ccc(OCCCN5CCCCC5)nc4)cc3c21 [AZD1390] (first compound max 10 µM, 7x7, partner max 0.3 µM)
combination Emax [1]: 0.199
combination Emax [2]: 0.689
combination Emax (COLO-792 (Melanoma)): 0.251
combination Emax [3]: 0.534
combination Emax [4]: 0.214
combination Emax [5]: 0.147
combination Emax [6]: 0.196
combination Emax (NB13 (Neuroblastoma)): 0.178
combination Emax (A101D (Melanoma)): 0.267
combination Emax [7]: 0.297
combination Emax [8]: 0.528
combination Emax [9]: 0.24
combination Emax [10]: 0.571
Bliss excess [11]: 0.0012
Bliss excess [12]: -0.135
Bliss excess [13]: -0.0704
Bliss excess (IM-9 (Non-Cancerous)): -0.0511
Bliss excess [14]: -0.0417
Bliss excess (769-P (Kidney Carcinoma)): -0.0722
Bliss excess (EW-7 (Ewing's Sarcoma)): -0.0416

Cc1cc2ncnn2cc1Nc1ncc2c(n1)n(C1CCOCC1)c(=O)n2C [AZD7648] + C=CCn1c(=O)c2cnc(Nc3ccc(N4CCN(C)CC4)cc3)nc2n1-c1cccc(C(C)(C)O)n1 [AZD1775] (first compound max 10 µM, partner max 1 µM)
combination Emax [1]: 0.886
combination Emax [2]: 0.345
combination Emax (COLO-792 (Melanoma)): 0.558
combination Emax [3]: 0.838
combination Emax [4]: 0.543
combination Emax [5]: 0.204
combination Emax [6]: 0.415
combination Emax (NB13 (Neuroblastoma)): 0.91
combination Emax (A101D (Melanoma)): 0.762
combination Emax [7]: 0.693
combination Emax [8]: 0.899
combination Emax [9]: 0.209
combination Emax [10]: 0.466
Bliss excess [11]: -0.0283
Bliss excess [12]: -0.0176
Bliss excess [13]: 0.0088
Bliss excess (IM-9 (Non-Cancerous)): -0.0659
Bliss excess [14]: 0.0025
Bliss excess (769-P (Kidney Carcinoma)): -0.0082
Bliss excess (EW-7 (Ewing's Sarcoma)): 0.0024

Cc1cc2ncnn2cc1Nc1ncc2c(n1)n(C1CCOCC1)c(=O)n2C [AZD7648] + CCN(CCO)CCCOc1ccc2c(Nc3cc(CC(=O)Nc4cccc(F)c4)[nH]n3)ncnc2c1 [AZD2811] (first compound max 10 µM, 7x7, partner max 1 µM)
combination Emax [1]: 0.232
combination Emax [2]: 0.583
combination Emax (COLO-792 (Melanoma)): 0.46
combination Emax [3]: 0.353
combination Emax [4]: 0.663
combination Emax [5]: 0.165
combination Emax [6]: 0.316
combination Emax (NB13 (Neuroblastoma)): 0.518
combination Emax (A101D (Melanoma)): 0.39
combination Emax [7]: 0.418
combination Emax [8]: 0.7
combination Emax [9]: 0.242
combination Emax [10]: 0
Bliss excess [11]: -0.0392
Bliss excess [12]: -0.0209
Bliss excess [13]: 0.0122
Bliss excess (IM-9 (Non-Cancerous)): -0.0432
Bliss excess [14]: 0.0363
Bliss excess (769-P (Kidney Carcinoma)): 0.0313
Bliss excess (EW-7 (Ewing's Sarcoma)): 0.043

C[C@@H](c1ccc2nccn2c1)n1nnc2ncc(-c3cnn(C)c3)nc21 [Savolitinib] + Cc1c2c(nn1C)CSCc1cc(n(C)n1)CSc1cc(c3ccccc3c1)OCCCc1c(C(=O)O)n(C)c3c-2c(Cl)ccc13 [AZD5991] (first compound max 1 µM, 7x7, partner max 1 µM)
combination Emax [1]: 0.575
combination Emax [2]: 0.494
combination Emax (COLO-792 (Melanoma)): 0.726
combination Emax [3]: 0.317
combination Emax [4]: 0.409
combination Emax [5]: 0.209
combination Emax [6]: 0.38
combination Emax (NB13 (Neuroblastoma)): 0.22
combination Emax (A101D (Melanoma)): 0.386
combination Emax [7]: 0.0743
combination Emax [8]: 0.181
combination Emax [9]: 0.627
combination Emax [10]: 0.169
Bliss excess [11]: -0.0063
Bliss excess [12]: 0.0097
Bliss excess [13]: -0.074
Bliss excess (IM-9 (Non-Cancerous)): 0.0478
Bliss excess [14]: -0.0315
Bliss excess (769-P (Kidney Carcinoma)): -0.0252
Bliss excess (EW-7 (Ewing's Sarcoma)): -0.0336
